Results published in PMC8963105, “A Novel Modulator of the Renin–Angiotensin System, Benzoylaconitine, Attenuates Hypertension by Targeting ACE/ACE2 in Enhancing Vasodilation and Alleviating Vascular Inflammation” (Frontiers in Pharmacology, 2022).

Key:
[1] = system: spontaneously hypertension rats (SHRs); test: chronic experiment: blood pressure, heart rate and aorta histology after 14-day oral administration in SHRs; type: in vivo, rat; conditions: once a day, 14 days
Experimental: (§1) The SHRs were surgically implanted with a catheter via the left femoral artery, vein, and stomach after anesthetizing with 2% pentobarbital sodium (40 mg kg^−1 i.p.,). A pressure sensor was inserted into the terminal of the arterial catheter and connected to a PowerLab system (ADInstruments, New South Wales, Australia) for real-time blood pressure monitoring.
(§2) All three MDAs (BAC, BMC, and BHC) were purchased from Nature-Standard Co., Ltd. (Shanghai, China) and their purities were all over 98%. The anti-hypertensive effects of MDAs were studied in both acute and chronic experiments. The 16-week-old SHRs were used in animal experiments, and each group had six rats. In the acute experiment, drug administration was via i.v. injection. For i.v. injection, the animals were randomly assigned into four groups: vehicle (0.1% DMSO–0.9% salt solution, n = 6), low-dose group (0.6 mg kg^−1 body weight, n = 6), medium-dose group (2 mg kg^−1 body weight, n = 6), and high-dose group (6 mg kg^−1 body weight, n = 6). The drug was administered using a venous catheter. In chronic experiments, the animals were randomly assigned into five groups: vehicle (5% Tween 80–0.9% salt solution, n = 6), captopril group (5 mg kg^−1 body weight, n = 6), low-dose group (3 mg kg^−1 body weight, n = 6), medium-dose group (10 mg kg^−1 body weight, n = 6), and high-dose group (30 mg kg^−1 body weight, n = 6). Oral administration with drug or 5% Tween 80–0.9% salt solution was carried out once a day, and continued for 14 days. The drugs were dissolved in 0.1% DMSO–0.9% salt solution for intravenous injection and in 5% Tween 80–0.9% salt solution for oral administration. Blood pressure was recorded in real time.
(§3) Real-time blood pressure level was monitored after drug treatment in the acute and chronic experiments. All animals were surgically implanted with a catheter in the left femoral artery. After connection to the monitor, all animals were placed at room temperature of 25°C for 0.5–1 h and the average blood pressure value was calculated based on a real-time blood pressure curve (10 s of every 30 s).
After euthanizing the rats with sodium pentobarbital (100 mg kg^−1, i.p.) administration in combination with isoflurane inhalation, the aortas were harvested directly according to a previously described method. The aortas were fixed in 4% paraformaldehyde for 24 h and embedded in paraffin. The cross-sections (5 μm) were stained with hematoxylin and eosin or subjected to immunostaining. Immunofluorescence staining for ACE and ACE2 was performed according to the manufacturer’s instructions (Servicebio, Wuhan, China).

[2] = system: spontaneously hypertension rats (SHRs); test: acute experiment: real-time blood pressure after i.v. injection in SHRs; type: in vivo, rat; conditions: for anti-hypertensive effect (in words): acute experiment, i.v. injection 0.6–6 mg kg^−1
Experimental: as §1, §2, §3

[3] = molecular target: T1, recombinant human ACE (rhACE) (Homo sapiens, UniProt P12821); test: SPR assay with rhACE; type: binding; conditions: rhACE on chip, 5% DMSO–1.05× PBS
T1 construct: purchased Proteintech
T1 sequence (P12821 30-1306): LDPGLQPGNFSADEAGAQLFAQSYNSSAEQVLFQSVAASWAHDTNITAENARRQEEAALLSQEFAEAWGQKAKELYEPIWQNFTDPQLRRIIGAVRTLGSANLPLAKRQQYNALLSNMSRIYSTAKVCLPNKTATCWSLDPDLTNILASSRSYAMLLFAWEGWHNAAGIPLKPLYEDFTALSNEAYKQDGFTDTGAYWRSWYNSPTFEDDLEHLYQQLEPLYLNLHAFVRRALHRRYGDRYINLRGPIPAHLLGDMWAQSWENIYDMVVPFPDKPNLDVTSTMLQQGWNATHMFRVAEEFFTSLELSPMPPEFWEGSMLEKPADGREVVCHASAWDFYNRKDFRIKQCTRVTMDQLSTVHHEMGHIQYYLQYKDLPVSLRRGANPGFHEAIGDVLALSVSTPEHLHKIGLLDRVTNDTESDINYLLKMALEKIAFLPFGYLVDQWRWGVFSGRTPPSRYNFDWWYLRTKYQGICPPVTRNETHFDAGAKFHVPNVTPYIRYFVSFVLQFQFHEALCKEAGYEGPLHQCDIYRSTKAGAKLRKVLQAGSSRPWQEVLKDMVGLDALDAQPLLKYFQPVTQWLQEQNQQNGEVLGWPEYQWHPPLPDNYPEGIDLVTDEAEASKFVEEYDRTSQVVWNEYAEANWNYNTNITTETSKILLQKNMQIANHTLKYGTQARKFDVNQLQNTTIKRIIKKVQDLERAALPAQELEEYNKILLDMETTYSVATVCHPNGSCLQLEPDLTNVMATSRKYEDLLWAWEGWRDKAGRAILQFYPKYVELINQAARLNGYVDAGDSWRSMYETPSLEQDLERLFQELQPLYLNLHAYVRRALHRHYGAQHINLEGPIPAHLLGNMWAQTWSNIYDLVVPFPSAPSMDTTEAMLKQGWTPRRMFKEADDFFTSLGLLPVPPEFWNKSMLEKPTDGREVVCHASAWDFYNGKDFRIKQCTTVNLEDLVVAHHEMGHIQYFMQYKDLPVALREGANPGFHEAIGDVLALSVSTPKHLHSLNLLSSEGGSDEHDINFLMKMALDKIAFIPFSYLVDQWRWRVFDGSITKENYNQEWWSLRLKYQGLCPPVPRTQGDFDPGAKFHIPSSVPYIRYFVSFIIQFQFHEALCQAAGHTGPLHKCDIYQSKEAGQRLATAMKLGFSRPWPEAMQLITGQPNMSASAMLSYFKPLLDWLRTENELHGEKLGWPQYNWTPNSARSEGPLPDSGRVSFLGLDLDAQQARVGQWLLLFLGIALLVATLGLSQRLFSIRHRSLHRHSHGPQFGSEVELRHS
Experimental: (§4) To screen the potential targets of the MDAs in hypertension, a CVDPlatform (www.cbligand.org/CVD) was used as previously reported ([Zhang et al., 2016a]). The results of database screening were verified by virtual docking with Discovery Studio 3.5 (BIOVIA, San Diego, CA, United States) and then validated in the SPR assay. In the SPR assay, a solution of protein standards was prepared, and the concentration of recombinant human ACE (rhACE) protein and rhACE2 (Proteintech, Rosemont, IL, United States) solution was set to 500 μg ml^−1. […] Finally, the level of binding between the proteins and each molecule was determined based on the K d value.

rhACE2 = molecular target: T2, rhACE2 (Homo sapiens, UniProt Q9BYF1); test: SPR assay with rhACE2; type: binding; conditions: rhACE2 on chip, 5% DMSO–1.05× PBS
T2 construct: purchased Proteintech
T2 sequence (Q9BYF1 18-805): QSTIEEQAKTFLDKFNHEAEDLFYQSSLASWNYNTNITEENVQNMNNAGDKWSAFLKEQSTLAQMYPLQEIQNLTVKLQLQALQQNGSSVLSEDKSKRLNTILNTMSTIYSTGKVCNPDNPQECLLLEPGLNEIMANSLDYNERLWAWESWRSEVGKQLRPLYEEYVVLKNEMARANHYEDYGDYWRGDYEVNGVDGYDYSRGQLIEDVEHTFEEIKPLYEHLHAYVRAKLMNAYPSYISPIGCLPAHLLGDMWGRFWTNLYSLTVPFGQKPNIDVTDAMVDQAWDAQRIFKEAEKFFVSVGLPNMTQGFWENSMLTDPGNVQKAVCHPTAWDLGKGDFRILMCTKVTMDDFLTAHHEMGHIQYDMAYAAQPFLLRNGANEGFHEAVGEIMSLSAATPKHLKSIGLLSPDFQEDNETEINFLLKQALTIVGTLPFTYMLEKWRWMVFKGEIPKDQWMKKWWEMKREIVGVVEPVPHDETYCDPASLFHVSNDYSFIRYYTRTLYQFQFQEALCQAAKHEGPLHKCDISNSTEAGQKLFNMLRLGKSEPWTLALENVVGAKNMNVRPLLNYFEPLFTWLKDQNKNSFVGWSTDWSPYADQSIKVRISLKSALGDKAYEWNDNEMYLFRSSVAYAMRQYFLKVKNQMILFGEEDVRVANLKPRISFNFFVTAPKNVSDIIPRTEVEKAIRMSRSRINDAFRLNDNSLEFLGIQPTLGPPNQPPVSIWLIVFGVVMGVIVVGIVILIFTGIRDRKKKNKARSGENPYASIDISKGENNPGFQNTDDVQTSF
Experimental: as §4

rhACE = rhACE (Homo sapiens, UniProt P12821); test: ACE activity assay kit (enzyme kinetics, cell-free); type: biochemical
Chain of rhACE (P12821 30-1306): as the sequence (P12821 30-1306) above
Experimental: (§5) ACE and ACE2 activities were measured using the ACE activity assay kit and SensoLyte390 ACE2 activity assay kit (Anaspec, Fremont, CA, United States), respectively, according to the manufacturer’s instructions with some modifications. Briefly, rhACE solution dissolved in deionized water was used for analysis. ACE activity was measured in a reaction system with 50 μl of the sample and 50 μl of the ACE substrate solution with or without BAC (10^–4 to 10^–2 μM). ACE2 activity was assayed in the same manner as ACE activity. All assays were performed every 10 s for 30 min at 37°C using a Varioskan LUX fluorescence microplate reader (Thermo Fisher Scientific, Waltham, MA, United States). The autofluorescence value in each assay was subtracted from the measured values to generate the final results. The relative fluorescence unit of each sample was normalized to the corresponding total protein concentration, which was measured using a Pierce BCA protein assay kit (Thermo Fisher Scientific).

hrACE2 = hrACE2 (Homo sapiens, UniProt Q9BYF1); test: SensoLyte390 ACE2 activity assay (enzyme kinetics, cell-free); type: biochemical; conditions: EC50 of BMC and BHC could not be determined
Chain of hrACE2 (Q9BYF1 18-805): as the sequence (Q9BYF1 18-805) above
Experimental: as §5

SMILES: C[C@H](CS)C(=O)N1CCC[C@H]1C(=O)O [captopril, reference compound]
- heart rate [1]: Heart rate changed

SMILES: COCC12CN(C)C3C4C(OC)C1C3(C(OC)CC2O)C1CC2(O)C(OC)C(O)C4(O)C1C2OC(=O)c1ccccc1 (stereo not drawn) [BMC, Benzoylmesaconine]
- anti-hypertensive effect (in words) [2]: observable anti-hypertensive effects
- blood pressure reduction ([2]; i.v. injection, 6 mg kg^−1): approximately 20 mmHg
- Kd [3]: 53.6 µM
- Kd (rhACE2): 20.5 µM
- IC50 (rhACE; 37°C, 30 min): 0.96 µM
- effect on ACE2 activity (in words) (hrACE2): weaker pharmacodynamics effects

SMILES: COCC12CCC(OC)C34C5CC6(O)C(OC)C(O)C(O)(C5C6OC(=O)c5ccccc5)C(C(OC)C13)C4N(C)C2 (stereo not drawn) [BHC, Benzoylhypaconitine]
- anti-hypertensive effect (in words) [2]: no anti-hypertensive effects
- Kd [3]: 139 µM
- Kd (rhACE2): 308 µM
- effect on ACE activity (in words) (rhACE; IC50 could not be determined): little effect
- effect on ACE2 activity (in words) (hrACE2): weaker pharmacodynamics effects
